Broadly, the melting point is the temperature, or range, at which the solid turns liquid.

The record followed here is US7211594B2, “Indazole compounds and compositions thereof as JNK inhibitors and for the treatment of diseases associated therewith” (Signal Pharmaceuticals, LLC, priority 2000, dated 2007).

`O=[N+]([O-])c1ccc2[nH]nc(-c3ccccc3)c2c1` [Example 7, 5-Nitro-3-phenyl-1H-indazole] showed a melting point of 185 to 186 °C.

`COc1ccc(-c2n[nH]c3ccc([N+](=O)[O-])cc23)cc1OC` [Example 23, 3-(3,4-Dimethoxyphenyl)-5-nitro-1H-indazole] had a melting point of 172 to 173 °C.

For `COc1ccc(-c2n[nH]c3ccc(N)cc23)cc1.Cl` [Example 34, 5-Amino-3-(4-methoxyphenyl)-1H-indazole Hydrochloride], the melting point was 240 °C (dec.).

`COc1ccc(-c2n[nH]c3ccc(N)cc23)cc1OC.O=C(O)C(F)(F)F`: the melting point was 150 °C (dec.).

As for `Fc1ccc2[nH]nc(-c3ccccc3)c2c1` [Example 6, 5-Fluoro-3-phenyl-1H-indazole], the melting point fell in the range of 124 to 125 °C.

As for `Fc1ccc(-c2n[nH]c3ccccc23)cc1` [Example 4, 3-(4-Fluorophenyl)-1H-indazole], the melting point was 126 °C.

The molecule `COc1ccc(-c2n[nH]c3ccc([N+](=O)[O-])cc23)cc1` [Example 21, 3-(4-Methoxyphenyl)-5-nitro-1H-indazole] showed a melting point of 153 °C.

`FC(F)(F)c1ccc2[nH]nc(-c3ccccc3)c2c1` [Example 5, 3-Phenyl-5-trifluoromethyl-1H-indazole] displayed a melting point of 152 °C.

Molecule `COc1ccccc1-c1n[nH]c2ccccc12` [Example 3, 3-(2-Methoxyphenyl)-1H-indazole] displayed a melting point of 99 °C.

The molecule `O=[N+]([O-])c1cccc(-c2n[nH]c3ccc([N+](=O)[O-])cc23)c1` gave a melting point of 249 to 251 °C.

Turning to `Nc1ccc2[nH]nc(-c3ccccc3)c2c1` [Example 8, 5-Amino-3-phenyl-1H-indazole], the melting point was found to be 104 °C.
